Reference: ChEMBL document CHEMBL4145686, “Discovery of a Potent and Selective Steroidal Glucocorticoid Receptor Antagonist (ORIC-101)” (J Med Chem, 2018)
pIC50: −log10 of the molar value.

Key:
Glucocorticoid receptor [1] = biological target: T1, Glucocorticoid receptor (Homo sapiens, UniProt P04150); assay: Antagonist activity at GR in human PBMC assessed as reduction in dexamethasone-induced GILZ gene expression incubated for 6 hrs by RT-qPCR method; assay type: cell-based
T1 sequence (P04150 whole entry): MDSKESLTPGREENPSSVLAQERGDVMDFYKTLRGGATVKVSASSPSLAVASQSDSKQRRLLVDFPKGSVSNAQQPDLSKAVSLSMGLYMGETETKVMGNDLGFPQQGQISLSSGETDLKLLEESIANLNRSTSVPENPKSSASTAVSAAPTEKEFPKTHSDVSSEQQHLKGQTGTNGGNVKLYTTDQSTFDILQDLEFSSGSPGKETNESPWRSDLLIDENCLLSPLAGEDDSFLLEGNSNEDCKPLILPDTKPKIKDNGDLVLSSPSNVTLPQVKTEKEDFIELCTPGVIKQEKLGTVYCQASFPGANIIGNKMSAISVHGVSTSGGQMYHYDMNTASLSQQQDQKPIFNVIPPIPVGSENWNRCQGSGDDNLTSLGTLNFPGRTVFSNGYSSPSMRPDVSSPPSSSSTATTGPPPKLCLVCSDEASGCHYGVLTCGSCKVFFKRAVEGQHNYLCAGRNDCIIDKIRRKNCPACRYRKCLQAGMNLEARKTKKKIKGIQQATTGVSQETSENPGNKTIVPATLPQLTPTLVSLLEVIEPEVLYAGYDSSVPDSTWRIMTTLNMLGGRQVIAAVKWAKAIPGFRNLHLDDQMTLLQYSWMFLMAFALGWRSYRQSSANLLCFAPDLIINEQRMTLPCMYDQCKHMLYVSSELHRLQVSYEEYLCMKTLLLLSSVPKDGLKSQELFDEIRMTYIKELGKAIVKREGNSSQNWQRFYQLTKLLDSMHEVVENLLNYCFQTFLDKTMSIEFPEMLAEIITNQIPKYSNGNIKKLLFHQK

Cytochrome P450 2C8 = biological target: T2, Cytochrome P450 2C8 (Homo sapiens, UniProt P10632); assay: Inhibition of CYP2C8 (unknown origin) using […] as substrate; assay type: ADME
T2 sequence (P10632 whole entry): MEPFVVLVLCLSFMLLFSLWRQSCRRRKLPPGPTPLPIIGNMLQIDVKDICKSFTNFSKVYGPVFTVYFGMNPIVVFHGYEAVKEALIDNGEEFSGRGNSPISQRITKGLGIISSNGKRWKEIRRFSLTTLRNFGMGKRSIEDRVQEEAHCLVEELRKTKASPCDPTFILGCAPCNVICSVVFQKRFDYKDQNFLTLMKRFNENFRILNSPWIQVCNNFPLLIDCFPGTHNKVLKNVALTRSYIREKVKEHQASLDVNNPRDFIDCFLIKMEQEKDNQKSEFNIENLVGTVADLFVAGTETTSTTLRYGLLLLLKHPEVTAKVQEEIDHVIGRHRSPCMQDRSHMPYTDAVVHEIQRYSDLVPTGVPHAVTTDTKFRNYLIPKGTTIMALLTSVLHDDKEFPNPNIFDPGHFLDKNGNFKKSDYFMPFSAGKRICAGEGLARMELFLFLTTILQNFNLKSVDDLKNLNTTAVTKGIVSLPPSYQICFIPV

Cytochrome P450 2C9 = Cytochrome P450 2C9 (Homo sapiens, UniProt P11712); assay: Inhibition of CYP2C9 (unknown origin) using […] as substrate; assay type: ADME
Cytochrome P450 2C9, sequence (P11712 whole entry): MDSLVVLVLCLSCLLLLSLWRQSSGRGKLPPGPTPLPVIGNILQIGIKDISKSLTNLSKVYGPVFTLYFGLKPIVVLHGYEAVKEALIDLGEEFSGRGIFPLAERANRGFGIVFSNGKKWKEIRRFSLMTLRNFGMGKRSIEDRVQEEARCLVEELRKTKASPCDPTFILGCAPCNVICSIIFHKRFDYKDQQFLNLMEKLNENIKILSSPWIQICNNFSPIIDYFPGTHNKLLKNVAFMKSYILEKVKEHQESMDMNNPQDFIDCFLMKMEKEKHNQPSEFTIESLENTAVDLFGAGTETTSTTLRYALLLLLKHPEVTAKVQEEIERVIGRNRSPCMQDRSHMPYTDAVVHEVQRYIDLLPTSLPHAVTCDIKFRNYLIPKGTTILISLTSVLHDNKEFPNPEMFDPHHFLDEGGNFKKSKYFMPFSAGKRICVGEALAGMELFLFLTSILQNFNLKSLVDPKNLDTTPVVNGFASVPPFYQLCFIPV

Cytochrome P450 3A4 = Cytochrome P450 3A4 (Homo sapiens, UniProt P08684); assay: Inhibition of CYP3A4 (unknown origin) using midazolam as substrate; assay type: ADME
Cytochrome P450 3A4, sequence (P08684 whole entry): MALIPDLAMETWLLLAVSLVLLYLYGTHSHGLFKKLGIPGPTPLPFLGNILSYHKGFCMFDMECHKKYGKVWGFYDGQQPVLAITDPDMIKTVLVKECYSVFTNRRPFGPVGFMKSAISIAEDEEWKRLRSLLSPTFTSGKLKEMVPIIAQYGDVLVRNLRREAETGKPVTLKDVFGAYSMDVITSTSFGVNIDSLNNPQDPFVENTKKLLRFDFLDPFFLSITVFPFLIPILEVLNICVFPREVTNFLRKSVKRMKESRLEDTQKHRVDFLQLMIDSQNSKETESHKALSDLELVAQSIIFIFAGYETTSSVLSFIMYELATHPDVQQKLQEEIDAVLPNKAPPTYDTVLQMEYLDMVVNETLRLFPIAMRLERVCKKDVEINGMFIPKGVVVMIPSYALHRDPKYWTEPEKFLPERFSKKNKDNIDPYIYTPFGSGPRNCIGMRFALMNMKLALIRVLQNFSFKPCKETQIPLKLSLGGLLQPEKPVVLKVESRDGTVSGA

Glucocorticoid receptor [2] = biological target: T3, Glucocorticoid receptor (Canis lupus familiaris, UniProt A0A8C0QLS2); assay: Antagonist activity at GR in dog PBMC assessed as reduction in dexamethasone-induced FKBP5 gene expression incubated for 6 hrs by RT-qPCR method; assay type: cell-based
T3 sequence (A0A8C0QLS2 whole entry): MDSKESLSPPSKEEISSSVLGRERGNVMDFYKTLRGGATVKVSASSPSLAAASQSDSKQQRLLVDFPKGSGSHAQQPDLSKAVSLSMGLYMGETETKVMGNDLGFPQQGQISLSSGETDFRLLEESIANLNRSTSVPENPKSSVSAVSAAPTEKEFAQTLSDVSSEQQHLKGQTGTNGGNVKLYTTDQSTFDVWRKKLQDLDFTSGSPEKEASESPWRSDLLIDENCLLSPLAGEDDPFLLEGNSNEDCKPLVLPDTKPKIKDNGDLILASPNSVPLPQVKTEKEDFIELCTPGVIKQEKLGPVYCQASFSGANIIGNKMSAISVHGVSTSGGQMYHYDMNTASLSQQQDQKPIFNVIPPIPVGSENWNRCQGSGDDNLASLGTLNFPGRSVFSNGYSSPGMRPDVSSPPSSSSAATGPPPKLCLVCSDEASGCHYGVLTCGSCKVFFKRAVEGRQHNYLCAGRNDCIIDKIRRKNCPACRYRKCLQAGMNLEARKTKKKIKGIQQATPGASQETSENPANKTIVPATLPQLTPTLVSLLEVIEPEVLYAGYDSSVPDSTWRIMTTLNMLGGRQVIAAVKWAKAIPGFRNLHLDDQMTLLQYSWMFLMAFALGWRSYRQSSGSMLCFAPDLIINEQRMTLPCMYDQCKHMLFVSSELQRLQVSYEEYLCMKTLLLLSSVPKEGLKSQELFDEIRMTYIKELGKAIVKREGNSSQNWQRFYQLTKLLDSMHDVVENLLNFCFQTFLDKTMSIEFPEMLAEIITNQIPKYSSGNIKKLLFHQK

Structure (SMILES): CC(C)N(C)c1ccc([C@H]2C[C@@]3(C)[C@@H](CC[C@@]3(O)C#CC(C)(C)C)[C@@H]3CCC4=CC(=O)CC[C@@H]4[C@H]32)cc1
- pIC50 (Glucocorticoid receptor [1]): 7.60
- pIC50 (Cytochrome P450 2C8): < 5.00
- pIC50 (Cytochrome P450 2C9): < 5.00
- pIC50 (Cytochrome P450 3A4): 5.80
- pIC50 (Glucocorticoid receptor [2]): 7.61
